Key:
[1] = J. Karnatak Univ., Sci. (1984), 29, 82-6; cited from earlier work
[2] = biological target: T1, epidermal growth factor (EGF) receptor tyrosine kinase (Homo sapiens, UniProt P00533); assay: In vitro receptor tyrosine kinase inhibition test (EGF receptor); type: biochemical
T1 construct: made in house; host or cells: insect cells (baculovirus, as for Flt)
Excerpt: (§1) (a) In Vitro Receptor Tyrosine Kinase Inhibition Test
This assay determines the ability of a test compound to inhibit tyrosine kinase activity. DNA encoding VEGF or epidermal growth factor (EGF) receptor cytoplasmic domains may be obtained by total gene synthesis (Edwards M, International Biotechnology Lab 5(3), 19-25, 1987) or by cloning. These may then be expressed in a suitable expression system to obtain polypeptide with tyrosine kinase activity. […] In the case of the VEGF receptor Flt (Genbank accession number X51602), a 1.7 kb DNA fragment encoding most of the cytoplasmic domain, commencing with methionine 783 and including the termination codon, described by Shibuya et al (Oncogene, 1990, 5: 519-524), was isolated from cDNA and cloned into a baculovirus transplacement vector (for example pAcYM1 (see The Baculovirus Expression System: A Laboratory Guide, L. A. King and R. D. Possee, Chapman and Hall, 1992) or pAc360 or pBlueBacHis (available from Invitrogen Corporation)). This recombinant construct was co-transfected into insect cells (for example Spodoptera frugiperda 21 (Sf21)) with viral DNA (eg Pharmingen BaculoGold) to prepare recombinant baculovirus. (Details of the methods for the assembly of recombinant DNA molecules and the preparation and use of recombinant baculovirus can be found in standard texts for example Sambrook et al, 1989. Molecular cloning—A Laboratory Manual, 2nd edition, Cold Spring Harbour Laboratory Press and O'Reilly et al, 1992, Baculovirus Expression Vectors—A Laboratory Manual. W. H. Freeman and Co. New York). For other tyrosine kinases for use in assays, cytoplasmic fragments starting from methionine 806 (KDR, Genbank accession number L04947) and methionine 668 (EGF receptor, Genbank accession number X00588) may be cloned and expressed in a similar manner.
For expression of cFlt tyrosine kinase activity, Sf21 cells were infected with plaque-pure cFlt recombinant virus at a multiplicity of infection of 3 and harvested 48 hours later. Harvested cells were washed with ice cold phosphate buffered saline solution (PBS) (10 mM sodium phosphate pH7.4, 138 mM NaCl, 2.7 mM KCl) then resuspended in ice cold HNTG/PMSF (20 mM Hepes pH7.5, 150 mM NaCl, 10% v/v glycerol, 1% v/v Triton X100. 1.5 mM MgCl2, 1 mM ethylene glycol-bis(βaminoethyl ether) N,N,N′,N′-tetraacetic acid (EGTA), 1 mM PMSF (phenylmethylsulphonyl fluoride); the PMSF is added just before use from a freshly-prepared 100 mM solution in methanol) using 1 ml HNTG/PMSF per 10 million cells. The suspension was centrifuged for 10 minutes at 13.000 rpm at 4° C., the supernatant (enzyme stock) was removed and stored in aliquots at −70° C. Each new batch of stock enzyme was titrated in the assay by dilution with enzyme diluent (100 mM Hepes pH 7.4, 0.2 mM Na3VO4, 0.1% v/v Triton X100, 0.2 mM dithiothreitol). For a typical batch, stock enzyme is diluted 1 in 2000 with enzyme diluent and 50 μl of dilute enzyme is used for each assay well.
(§2) A stock of substrate solution was prepared from a random copolymer containing tyrosine, for example Poly (Glu, Ala, Tyr) 6:3:1 (Sigma P3899), stored as 1 mg/ml stock in PBS at −20° C. and diluted 1 in 500 with PBS for plate coating.
(§3) On the day before the assay 100 μl of diluted substrate solution was dispensed into all wells of assay plates (Nunc maxisorp 96-well immunoplates) which were sealed and left overnight at 4° C.
(§4) On the day of the assay the substrate solution was discarded and the assay plate wells were washed once with PBST (PBS containing 0.05% v/v Tween 20) and once with 50 mM Hepes pH7.4.
Test compounds were diluted with 10% dimethylsulphoxide (DMSO) and 25 μl of diluted compound was transferred to wells in the washed assay plates. “Total” control wells contained 10% DMSO instead of compound. Twenty five microliters of 40 mM MnCl2 containing 8 μM adenosine-5′-triphosphate (ATP) was added to all test wells except “blank” control wells which contained MnCl2 without ATP. […]

[3] = biological target: T2, VEGF receptor tyrosine kinase (Homo sapiens, UniProt P17948); assay: In vitro receptor tyrosine kinase inhibition test (VEGF receptor); type: biochemical
T2 construct: encoding most of the cytoplasmic domain, commencing with methionine 783 and including the termination codon; made in house; host or cells: Spodoptera frugiperda Sf21 insect cells (baculovirus); cleared Triton X100 lysate used as enzyme stock
T2 sequence (P17948 781-1338 limits assumed): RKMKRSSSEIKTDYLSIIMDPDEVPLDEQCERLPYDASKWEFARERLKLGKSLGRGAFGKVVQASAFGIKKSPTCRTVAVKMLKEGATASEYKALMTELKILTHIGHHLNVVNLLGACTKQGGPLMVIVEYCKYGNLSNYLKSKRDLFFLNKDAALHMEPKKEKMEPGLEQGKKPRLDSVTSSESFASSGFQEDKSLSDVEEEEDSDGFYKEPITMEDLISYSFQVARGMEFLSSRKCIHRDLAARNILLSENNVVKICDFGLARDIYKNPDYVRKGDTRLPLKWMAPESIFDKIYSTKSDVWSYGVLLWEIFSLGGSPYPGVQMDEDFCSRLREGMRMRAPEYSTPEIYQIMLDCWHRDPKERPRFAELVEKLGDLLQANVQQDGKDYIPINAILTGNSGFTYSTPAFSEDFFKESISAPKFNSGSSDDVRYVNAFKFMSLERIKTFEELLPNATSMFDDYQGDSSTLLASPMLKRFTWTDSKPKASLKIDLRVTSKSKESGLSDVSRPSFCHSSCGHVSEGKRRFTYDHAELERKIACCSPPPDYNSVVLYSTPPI
Excerpt: as §1
This assay determines the ability of a test compound to inhibit tyrosine kinase activity. […] These may then be expressed in a suitable expression system to obtain polypeptide with tyrosine kinase activity. […] This recombinant construct was co-transfected into insect cells (for example Spodoptera frugiperda 21 (Sf21)) with viral DNA (eg Pharmingen BaculoGold) to prepare recombinant baculovirus.
For expression of cFlt tyrosine kinase activity, Sf21 cells were infected with plaque-pure cFlt recombinant virus at a multiplicity of infection of 3 and harvested 48 hours later. […] The suspension was centrifuged for 10 minutes at 13.000 rpm at 4° C., the supernatant (enzyme stock) was removed and stored in aliquots at −70° C. Each new batch of stock enzyme was titrated in the assay by dilution with enzyme diluent (100 mM Hepes pH 7.4, 0.2 mM Na3VO4, 0.1% v/v Triton X100, 0.2 mM dithiothreitol). For a typical batch, stock enzyme is diluted 1 in 2000 with enzyme diluent and 50 μl of dilute enzyme is used for each assay well.
as §2, §3, §4
Test compounds were diluted with 10% dimethylsulphoxide (DMSO) and 25 μl of diluted compound was transferred to wells in the washed assay plates. “Total” control wells contained 10% DMSO instead of compound. Twenty five microliters of 40 mM MnCl2 containing 8 μM adenosine-5′-triphosphate (ATP) was added to all test wells except “blank” control wells which contained MnCl2 without ATP. To start the reactions 50 μl of freshly diluted enzyme was added to each well and the plates were incubated at room temperature for 20 minutes. The liquid was then discarded and the wells were washed twice with PBST. […] Plates were then incubated for 20-60 minutes at room temperature until the optical density value of the “total” control wells, measured at 405 nm using a plate reading spectrophotometer, was approximately 1.0.

T1 sequence (P00533 669-1210 limits assumed): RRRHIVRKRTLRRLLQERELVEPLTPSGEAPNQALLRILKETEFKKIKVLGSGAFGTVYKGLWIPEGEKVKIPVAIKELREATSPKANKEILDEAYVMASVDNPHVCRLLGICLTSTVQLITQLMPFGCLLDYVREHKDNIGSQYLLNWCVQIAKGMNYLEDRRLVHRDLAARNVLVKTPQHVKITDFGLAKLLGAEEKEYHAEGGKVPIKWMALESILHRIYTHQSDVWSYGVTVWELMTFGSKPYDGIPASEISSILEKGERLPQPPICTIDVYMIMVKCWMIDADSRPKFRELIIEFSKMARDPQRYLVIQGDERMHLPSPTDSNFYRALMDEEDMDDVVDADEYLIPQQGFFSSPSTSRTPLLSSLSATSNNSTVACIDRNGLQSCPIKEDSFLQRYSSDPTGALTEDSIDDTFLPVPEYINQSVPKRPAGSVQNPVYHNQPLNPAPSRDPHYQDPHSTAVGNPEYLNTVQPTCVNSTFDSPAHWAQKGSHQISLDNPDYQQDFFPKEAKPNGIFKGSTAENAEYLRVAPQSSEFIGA

SMILES	anti-inflammatory and antiarthritic activity [1]	activity against epidermal growth factor (EGF) receptor tyrosine kinase [2]	activity against VEGF receptor tyrosine kinase [3]
COc1ccc(Nc2cnnc3cc(OC)c(OC)cc23)cc1 [4-(4-methoxyanilino)-6,7-dimethoxycinnoline]	some anti-inflammatory and antiarthritic activity		
COc1cc2nncc(Nc3cccc(Cl)c3)c2cc1OC [4-(3-chloroanilino)-6,7-dimethoxycinnoline]	some anti-inflammatory and antiarthritic activity		
COCCOc1cc2nncc(Nc3cc(O)c(Cl)cc3F)c2cc1OC [Example 8, 4-(4-chloro-2-fluoro-5-hydroxyanilino)-6-methoxy-7-(2-methoxyethoxy)cinnoline]		lack of significant activity	good activity
COCCOc1cc2nncc(Nc3cc(O)c(C)cc3F)c2cc1OC [4-(2-fluoro-5-hydroxy-4-methylanilino)-6-methoxy-7-(2-methoxyethoxy)cinnoline]		lack of significant activity	good activity

Source: US6514971B1, “Cinnoline derivatives and use as medicine” (Zeneca Limited, priority 1996, dated 2003)
